# Measurements reported in US6268181A, “Methods for producing a potentiator of Bacillus pesticidal activity” (Valent BioSciences, Corporation, priority 1998, dated 2001).
# Assays:
# Spodoptera exigua [1] = test: Spodoptera exigua micro-bioassay (potentiation of Bt Cry protein by Ia); type: in vivo
# Procedure: Activity is monitored by a Spodoptera exigua micro-bioassay, and purity is determined by capillary electrophoresis. […] The trays containing the various samples are air dried. Two to four 2nd or early 3rd instar Spodoptera exigua are added to the wells containing the dried sample. The wells are sealed with mylar poked with holes and are incubated for 2-3 days at 30° C. Degree of stunting and percent mortality are then recorded. Typically, 5 replicate wells are run for each sample.
# *Mortality = # insects dead/# total insects after 2 days
# .dagger.Stunt score is defined by the average size of the live insect
# larvae at the end of the bioassay: 4.0 = untreated control, 3.0 = 75% size
# of untreated control, 2.0 = 50% size of untreated control, 1.0 = 25% size
# of untreated control, 0.0 = no growth or size unchanged from start of […]
# [2] = Stability of Ia determined by bioassay; type: physicochemical
# Procedure: Activity is monitored by a Spodoptera exigua micro-bioassay, and purity is determined by capillary electrophoresis. Sample consisting of 50 μl of Ia and 50 μl of CryIA(c) protein (15 μg/ml) purified from BIOBIT™ FC (100 μl), is applied to individual wells of a jelly tray containing 500 μl of solidified artificial insect diet. The trays containing the various samples are air dried. Two to four 2nd or early 3rd instar Spodoptera exigua are added to the wells containing the dried sample. The wells are sealed with mylar poked with holes and are incubated for 2-3 days at 30° C. Degree of stunting and percent mortality are then recorded. Typically, 5 replicate wells are run for each sample.
# Further, it is stable when subjected to direct sunlight for at least 10 hours. Ia is stable at pH 2 for 3 days, but unstable at pH 12.
# [3] = Solubility of the active compound; type: physicochemical
# Spodoptera exigua [4] = test: Diet incorporation bioassay, third instar Spodoptera exigua; type: in vivo
# Procedure: (§1) B.t.k. activity is determined by an artificial diet incorporation bioassay using third instar Spodoptera exigua larvae, second instar Helicoverpa zea larvae, third instar Spodoptera frugiperda larvae, second instar Heliothis virescens larvae, third instar Trichoplusia ni larvae, third instar Pseudoplusia includens larvae, third instar Plutella xylostella larvae, third instar Spodoptera littoralis, and third instar Mamestra brassicae larvae.
# (§2) To determine the level of potentiation by adding Ia to B.t. products, and establish the range of insects that are affected, diet incorporation bioassays are performed. In the experiments with high concentrations of Ia against Spodoptera exigua (7.4-23.7 g Ia/BIU), purified Ia (70% active ingredient, 30% acetate counter ion) is used to potentiate BIOBIT™ FC (FC represents flowable concentrate). […] S. littoralis and M. brassicae are tested using FLORBAC™ HPWP and Ia.
# (§3) The various B.t. products are weighed and Ia is added to give 0.1 to 237 g Ia/BIU. The volume is adjusted with 0.1% Tween™. The samples are sonicated for 1 minute and then diluted to final volume. Neat samples (without Ia) and reference substances are prepared as well. Reference substances include B.t.k.
# (§4) Standard artificial diet composed of water, agar, sugar, casein, wheat germ, methyl paraben, sorbic acid, linseed oil, cellulose, salts, and vitamins are prepared in a 20 L heated kettle. This provides enough diet to test 10 to 12 samples with seven different concentrations of each test substance. The B.t. solutions are serially diluted to give 16 ml aliquots. Each aliquot is added to 184 g of molten diet. The mixture is subsequently homogenized and then poured into a plastic tray bearing 40 individual cells. Three control trays are prepared for each batch of diet. Once the diet has cooled and solidified, one insect of a known age (2-3 instar) is added to each cell, and the trays are covered with a perforated sheet of clear mylar. The trays are placed on racks and incubated for four days at 28° C. and 65% relative humidity.
# (§5) After four days, insect mortality is rated. […] Percent mortality is calculated and the data is analyzed via parallel probit analysis. LC50 s, LC90 s, the slope of the regression lines, coefficient of variation, and potencies are estimated. Samples are run a minimum of 3 times or until three potencies are within 20% of a calculated mean for each sample. To calculate the increase in activity associated with each concentration of Ia, the LC50 of the B.t./Ia sample is corrected to reflect the amount of B.t. in the sample. The Lc50 s of the paired neat samples are divided by the corrected LC50 values to give the fold reduction in LC50 associated with Ia.
# The potentiation of various produces on Spodoptera exigua by Ia is determined using diet incorporation bioassays described supra. Ia/B.t. product mixture is incorporated into an agar-based wheat germ casein diet. The insects are placed on the diet for four days and held at 28° C. Mortality is recorded and analyzed using probit analysis. LC50, LC90 and potency are calculated from matched product lacking Ia. The results shown in Table V indicate that Ia potentiate various B.t.k. and B.t.a. products obtained from various sources. The B.t. strains contained in these products are described in Section 5.2., supra.
# Spodoptera frugiperda = test: Diet incorporation bioassay, third instar Spodoptera frugiperda; type: in vivo; details: BIOBIT HPWP
# Procedure: as §1, §2, §3, §4, §5
# Trichoplusia ni = test: Diet incorporation bioassay, third instar Trichoplusia ni; type: in vivo; details: BIOBIT HPWP
# Procedure: as §1, §2, §3, §4, §5
# Pseudoplusia includens = test: Diet incorporation bioassay, third instar Pseudoplusia includens; type: in vivo; details: BIOBIT HPWP
# Procedure: as §1, §2, §3, §4, §5
# Plutella xylostella = test: Diet incorporation bioassay, third instar Plutella xylostella; type: in vivo; details: BIOBIT HPWP
# Procedure: as §1, §2, §3, §4, §5
# Helicoverpa zea = test: Diet incorporation bioassay, second instar Helicoverpa zea; type: in vivo; details: BIOBIT HPWP, 3.2 g Ia per BIU
# Procedure: as §1, §2
# as §3, with “B.t.k. […]” for “B.t.k.”
# (§6) After four days, insect mortality is rated. […] Percent mortality is calculated and the data is analyzed via parallel probit analysis. […]
# Heliothis virescens = test: Diet incorporation bioassay, second instar Heliothis virescens; type: in vivo; details: BIOBIT HPWP, 3.2 g Ia per BIU
# Procedure: as §1, §2
# as §3, with “B.t.k. […]” for “B.t.k.”
# as §6
# Lobesia bothrana = Lobesia bothrana assay (larvae drinking dilution, grape berries); type: in vivo; details: BIOBIT HPWP, 2.0 g Ia per BIU
# Procedure: The following procedure is used to assay for Lobesia bothrana. Vine grapes attacked by Lobesia bothrana are collected in an unsprayed field and larva is removed. A dilution series of Ia (250 μg/ml, 500 μg/ml, and 1000 μg/ml) is made in water. One larva is put in the middle of the petri dish. If the larva is observed to drink, it is moved into a petri dish with freshly cut grape berries. The larvae are stored at 22° C. for 3-4 days.
# Spodoptera littoralis = test: Diet incorporation bioassay, third instar Spodoptera littoralis; type: in vivo; details: FLORBAC HPWP, 2.0 g Ia per BIU
# Procedure: as §1, §2
# as §3, with “B.t.k. […]” for “B.t.k.”
# as §6
# Mamestra brassicae = test: Diet incorporation bioassay, third instar Mamestra brassicae; type: in vivo; details: FLORBAC HPWP, 2.0 g Ia per BIU
# Procedure: as §1, §2
# as §3, with “B.t.k. […]” for “B.t.k.”
# as §6
structure (smiles),measurement,setting,value
NC(=O)NCC(NC(=O)C(O)C(O)C(N)C(O)CC(O)C(N)CO)C(N)=O (centres unmarked) [Ia],potentiation of crystal delta-endotoxin,Spodoptera exigua [1]; Bacillus thuringiensis subsp. kurstaki and aizawai crystal delta-endotoxin proteins,potentiate the activity
same,level of potentiation,Spodoptera exigua [1]; CryIC inclusions,250 fold
same,potentiation of pesticidal activity,Spodoptera exigua [1]; CryII and CryIC inclusions,also potentiated
same,potentiation,Spodoptera exigua [1]; CryII inclusions,125 fold
same,Mortality,"Spodoptera exigua [1]; Ia alone, no Bt protein, after 2 days",0/5
same,Stunt Score,"Spodoptera exigua [1]; Ia alone, no Bt protein, 4.0 = untreated control, 0.0 = no growth",4.0
same,potentiation of pesticidal activity,"Spodoptera exigua [1]; formulated B.t.k., isolated crystals, full-length or truncated CryIA proteins",all potentiated
same,level of potentiation,Spodoptera exigua [1]; full-length CryIA(c),approximately 320 fold
same,potentiation of pesticidal activity,"Spodoptera exigua [1]; individual truncated CryIA(a), (b), and (c) proteins",potentiate the activity
same,level of potentiation,"Spodoptera exigua [1]; truncated CryIA proteins, CryII and CryIC inclusions",100-200 fold
same,activity of Ia alone,Spodoptera exigua [1]; without Cry protein,inactive alone
same,stability,[2]; autoclaving (>190C),loses all activity
same,stability,[2]; boiling for 5 minutes,stable
same,stability,[2]; direct sunlight for at least 10 hours,stable
same,stability,[2]; exposed to periodic acid or concentrated HCl,lose all activity
same,stability,[2]; pH 2 for 3 days,stable
same,stability,[2]; pH 12,unstable
same,solubility in organic solvents,[3]; organic solvents,not soluble in organic solvents
same,water solubility,[3]; water,water soluble
same,"Increase in activity, Fold reduction in LC50","Spodoptera exigua [4]; BIOBIT FC, 7.4 g Ia per BIU, purified Ia",13 Fold
same,"Increase in activity, Fold reduction in LC50","Spodoptera exigua [4]; BIOBIT FC, 15 g Ia per BIU, purified Ia",26 Fold
same,"Increase in activity, Fold reduction in LC50","Spodoptera exigua [4]; BIOBIT FC, 30 g Ia per BIU, purified Ia",34 Fold
same,"Increase in activity, Fold reduction in LC50","Spodoptera exigua [4]; BIOBIT FC, 118 g Ia per BIU, purified Ia",59 Fold
same,"Increase in activity, Fold reduction in LC50","Spodoptera exigua [4]; BIOBIT FC, 237 g Ia per BIU, purified Ia",79 Fold
same,"Increase in activity, Fold reduction in LC50","Spodoptera exigua [4]; BIOBIT HPWP, 0.1 g Ia per BIU",1.5 Fold
same,"Increase in activity, Fold reduction in LC50","Spodoptera exigua [4]; BIOBIT HPWP, 0.2 g Ia per BIU",1.7 Fold
same,"Increase in activity, Fold reduction in LC50","Spodoptera exigua [4]; BIOBIT HPWP, 2.0 g Ia per BIU",4.3 Fold
same,"Increase in activity, Fold reduction in LC50","Spodoptera exigua [4]; BIOBIT HPWP, 4.0 g Ia per BIU",7.5 Fold
same,"Increase in activity, Fold reduction in LC50",Spodoptera frugiperda; 0.2 g Ia per BIU,2.2 Fold
same,"Increase in activity, Fold reduction in LC50",Spodoptera frugiperda; 0.8 g Ia per BIU,3.9 Fold
same,"Increase in activity, Fold reduction in LC50",Spodoptera frugiperda; 2.0 g Ia per BIU,7.2 Fold
same,"Increase in activity, Fold reduction in LC50",Spodoptera frugiperda; 4.0 g Ia per BIU,11.6 Fold
same,"Increase in activity, Fold reduction in LC50",Trichoplusia ni; 0.1 g Ia per BIU,1.1 Fold
same,"Increase in activity, Fold reduction in LC50",Trichoplusia ni; 0.2 g Ia per BIU,1.2 Fold
same,"Increase in activity, Fold reduction in LC50",Trichoplusia ni; 2.0 g Ia per BIU,2.0 Fold
same,"Increase in activity, Fold reduction in LC50",Trichoplusia ni; 4.0 g Ia per BIU,3.1 Fold
same,"Increase in activity, Fold reduction in LC50",Pseudoplusia includens; 0.1 g Ia per BIU,0 Fold
same,"Increase in activity, Fold reduction in LC50",Pseudoplusia includens; 0.2 g Ia per BIU,1.2 Fold
same,"Increase in activity, Fold reduction in LC50",Pseudoplusia includens; 0.8 g Ia per BIU,2.1 Fold
same,"Increase in activity, Fold reduction in LC50",Pseudoplusia includens; 2.0 g Ia per BIU,2.4 Fold
same,"Increase in activity, Fold reduction in LC50",Pseudoplusia includens; 4.0 g Ia per BIU,3.4 Fold
same,"Increase in activity, Fold reduction in LC50",Plutella xylostella; 0.2 g Ia per BIU,1.6 Fold
same,"Increase in activity, Fold reduction in LC50",Plutella xylostella; 0.8 g Ia per BIU,1.3 Fold
same,"Increase in activity, Fold reduction in LC50",Plutella xylostella; 2.0 g Ia per BIU,1.4 Fold
same,"Increase in activity, Fold reduction in LC50",Plutella xylostella; 4.0 g Ia per BIU,1.9 Fold
same,"Increase in activity, Fold reduction in LC50",Helicoverpa zea,12.6 Fold
same,"Increase in activity, Fold reduction in LC50",Heliothis virescens,4.2 Fold
same,"Increase in activity, Fold reduction in LC50",Lobesia bothrana,3.0 Fold
same,"Increase in activity, Fold reduction in LC50",Spodoptera littoralis,8.6 Fold
same,"Increase in activity, Fold reduction in LC50",Mamestra brassicae,4.9 Fold
